Usually pKi stands for −log10 of the Ki, conventionally taken in molar units. A high value points to a small Ki. For orientation: kon means the rate constant with which the complex forms.

This note sets out measurements from patent US5866545A, “Substituted ketone derivatives as inhibitors of interleukin-1β converting enzyme” (Merck & Co., Inc., priority 1996, dated 1999).

Molecules are shown by their SMILES. pKi: −log10 of the molar value. Read-outs that look alike come from different tables or passages of the source.

The target of the assay is T1, interleukin-1β converting enzyme (ICE) (Homo sapiens, UniProt P29466).
T1 sequence (P29466 120-297 limits assumed): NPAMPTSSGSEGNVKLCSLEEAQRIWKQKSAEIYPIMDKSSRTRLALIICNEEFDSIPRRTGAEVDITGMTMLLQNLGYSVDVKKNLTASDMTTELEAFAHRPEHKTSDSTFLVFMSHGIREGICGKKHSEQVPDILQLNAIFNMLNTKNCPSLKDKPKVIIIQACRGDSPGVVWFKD
T1 sequence (P29466 317-404 limits assumed): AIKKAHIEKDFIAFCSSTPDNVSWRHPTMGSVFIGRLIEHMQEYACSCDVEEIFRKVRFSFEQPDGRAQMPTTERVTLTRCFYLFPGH
As to the kind of experiment: Fluorometric assay of inhibition of ICE hydrolysis of peptide substrate Ac-Tyr-Val-Ala-Asp-AMC. The format is biochemical. The settings on record: for pKi: reversible inhibition; for kon: irreversible inhibition. An excerpt: Inhibition of Interleukin-1β Converting Enzyme (ICE).
A fluorometric assay used to evaluate the inhibition of interleukin-1βconverting enzyme (ICE) hydrolysis of a peptide substrate (Ac-Tyr-Val-Ala-Asp-AMC) by the compounds described in Examples 1-15 has been described in detail (N. A. Thornberry et al., Nature 1992, 356, 768-774). Briefly, liberation of AMC (aminomethylcoumarin) from the substrate was monitored continuously in a spectrofluorometer using an excitation wavelength of 380 nm and an emission wavelength of 460 nm. Details for determining kinetic constants for reversible and irreversible inhibition are described (N. A. Thomberry et al., Biochemistry 1994, 33, 3934-3940).
Inhibition of Interleukin-1β Converting Enzyme (ICE) by Examples 1-14

Molecule `C=CCOC(=O)NC(CC(=O)O)C(=O)COc1ccccc1` (centres unmarked) [Example 1, N-Allyloxycarbonyl-3-amino-4-oxo-5-phenoxy-pentanoic acid] had a negative logarithm of the Ki (pKi) of 5.46.
On the same count and under the same terms, the same measure for `C=CCOC(=O)NC(CC(=O)O)C(=O)COc1cccc2ccccc12` (centres unmarked) [Example 2, N-Allyloxycarbonyl-3-amino-5-(1-naphthyloxy)-4-oxopentanoic acid]: 5.02; for `C=CCOC(=O)NC(CC(=O)O)C(=O)COc1ccc2ccccc2c1` (centres unmarked) [Example 3, N-Allyloxycarbonyl-3-amino-5-(2-naphthyloxy)-4-oxopentanoic acid]: 5.30; for `C=CCOC(=O)NC(CC(=O)O)C(=O)COc1cc2ccccc2cc1C(N)=O` (centres unmarked) [Example 4, N-Allyloxycarbonyl-3-amino-5-(3-aminocarbonyl-2-naphthyloxy)-4-oxopentanoic acid]: 6.52.
Molecule `C=CCOC(=O)NC(CC(=O)O)C(=O)COc1cc2ccccc2cc1C(=O)Nc1ccccc1` (centres unmarked) [Example 5, N-Allyloxycarbonyl-3-amino-5-(3-(N-phenyl)aminocarbonyl-2-naphthyloxy)-4-oxopentanoic acid] had a pKi of 6.30.
On to `C=CCOC(=O)NC(CC(=O)O)C(=O)COc1cc2ccccc2cc1C#N` (centres unmarked) [Example 6, N-Allyloxycarbonyl-3-amino-5-(3-cyano-2-naphthyloxy)-4-oxopentanoic acid], for which the pKi is 6.21. For the same molecule, the on-rate constant (kon) (read-out: kon) worked out at 4500 M⁻¹ s⁻¹.
On to `C=CCOC(=O)NC(CC(=O)O)C(=O)COc1cc2ccccc2cc1CO` (centres unmarked) [Example 7, N-Allyloxycarbonyl-3-amino-5-(3-hydroxymethyl-2-naphthyloxy)-4-oxopentanoic acid], for which the pKi was 5.92.
On the same count and under the same terms, the same measure for `C=CCOC(=O)NC(CC(=O)O)C(=O)COc1cc2ccccc2cc1C(=O)OC` (centres unmarked) [Example 8, N-Allyloxycarbonyl-3-amino-5-(3-methoxycarbonyl-2-naphthyloxy)-4-oxopentanoic acid]: 5.59.
The molecule `C=CCOC(=O)NC(CC(=O)O)C(=O)COc1cc2ccccc2cc1C(=O)NCCO` (centres unmarked) [Example 9, N-Allyloxycarbonyl-3-amino-5-(3-(2-hydroxyethyl-1-aminocarbonyl)-2-naphthyloxy)-4-oxopentanoic acid] showed an on-rate constant (kon) of 1000 M⁻¹ s⁻¹ and a pKi of 6.28.
For `C=CCOC(=O)NC(CC(=O)O)C(=O)COc1cc2ccccc2cc1-n1ccnc1` (centres unmarked) [Example 10, N-Allyloxycarbonyl-3-amino-5-(3-imidazolyl-2-naphthyloxy)-4-oxopentanoicacid], the kon is 12,000 M^-1 s^-1 and the negative logarithm of the Ki (pKi) is 7.05.
Molecule `CC(=O)N[C@@H](Cc1ccc(O)cc1)C(=O)N[C@H](C(=O)N[C@@H](C)C(=O)NC(CC(=O)O)C(=O)COc1ccccc1)C(C)C` (some centres unmarked) [Example 11, N-(N-Acetyl-(L)-tyrosinyl-(L)-valinyl-(L)-alaninyl)-3-amino-5-phenoxy-4-oxopentanoic acid] had a negative-log Ki (pKi) of 8.52.
For the molecule `CC(C)[C@H](NC(=O)OCc1ccccc1)C(=O)N[C@@H](C)C(=O)NC(CC(=O)O)C(=O)COc1cc2ccccc2cc1C(N)=O.CCN(CC)CC` (some centres unmarked) [Example 12, N-(N-Carbobenzyloxy-(L)-valinyl-(L)-alaninyl)-3-amino-5-(3-amino-carbonyl-naphthyl-2-oxy)-4-oxo-pentanoic acid, triethylamine salt], the association rate constant (kon) is reported as 430,000 M^-1 s^-1.
Same read-out and setting: the same measure for `CC(C)[C@H](NC(=O)OCc1ccccc1)C(=O)N1CCC[C@H]1C(=O)NC(CC(=O)O)C(=O)COc1cc2ccccc2cc1C(N)=O` (some centres unmarked) [Example 13, N-(N-Carbobenzyloxy-(L)-valinyl-(L)-prolinyl)-3-amino-5-(3-amino-carbonyl-naphthyl-2-oxy)-4-oxo-petanoic acid]: 340,000 M^-1 s^-1.
On the same count and under the same terms, the same measure for `NC(=O)c1cc2ccccc2cc1OCC(=O)C(CC(=O)O)NC(=O)c1cc2ccccc2[nH]1` (centres unmarked) [Example 14, N-(2-indoloyl)-3-amino-5-(3-aminocarbonyl-naphthyl-2-oxy)-4-oxo-pentanoic acid]: 390 M⁻¹ s⁻¹.
